Entries after “also recorded” stand apart in the source; their conditions may differ. Read-outs that look alike come from different tables or passages of the source.
Legend:
[1] = tested on: P. falciparum NF54 strain; test: P. falciparum NF54 growth assay, 3H-hypoxanthine incorporation (hit validation); assay type: cell-based, Plasmodium falciparum; details: for EC50: Plasmodium falciparum
Protocol: Synthesized compounds were tested in an alternative assay, in which ^3H-hypoxanthine incorporation was measured in the chloroquine-sensitive strain NF54 (Values were measured in duplicate, 12 points/EC50).
Cultivation of Plasmodium falciparum: Plasmodium falciparum strain NF54 was obtained from the Research and Reference Reagent Resource Center (MR4) (Manassas, VA, USA). The two strains were maintained in vitro by a modification of the method of Trager and Jensen. Cultures were maintained in A positive (A^+) human erythrocytes suspended at 5% hematocrit in complete medium. […] Parasite growth and morphology were observed daily using thin smears at 100X (oil immersion) magnification following staining with Giemsa stain.
Plasmodium falciparum growth assay: The protocol assesses the compound efficacy against the growth of P. falciparum in vitro.
All cultures used in the study are albumax II adopted. […]
Following the incubation period, the plates were harvested with a FilterMate cell harvester (Perkin Elmer) onto unifilter-96 GF/B plates, washed with distilled water to remove excess radiochemical and plates were kept for drying 37°C overnight or 60°C for 1 hr. Fifty µL of Microscint scintillation cocktail (Microscint-High Efficiency LSC-Cocktail; Perkin Elmer) added in the unifilter-96 GF/B plates and kept for 15-20 min. The plates were counted in a Top Count NXT microplate scintillation and luminescence counter (Perkin Elmer). The mean values for [^3H]-hypoxanthine incorporation in parasitized control and non-parasitized control erythrocytes were calculated.
Assay data were analysed using Graph pad prism ver.5 software. A variable sigmoid dose response curve is plotted keeping log concentrations at X-axis and % inhibition at Y-axis.

P. falciparum 3D7 strain = test: P. falciparum 3D7 growth inhibition, DAPI imaging (HTS screen); assay type: cell-based; details: Plasmodium falciparum
Protocol: The P. falciparum 3D7 strain was used for the primary screen.
For the screening of the chemical library, a validated high throughput screening (HTS) method was used as reported by Duffy and Avery. In brief, intra-erythrocyte P. falciparum 3D7 parasites incubated with the compounds for 72 hours were stained with 4′-6-diamidino-2-phenylindole (DAPI) and imaged using a high throughput confocal imaging system. To ascertain inhibition of parasite growth, images of fluorescent parasites were translated, using a mathematical algorithm, into a numerical output of classified spots (parasites) as determined by fluorescence size and intensity.
EC50 and CC50 values were calculated for compounds which presented an Emax plateau using GraphPad Prism.

[2] = Chemical stability on standing at room temperature; assay type: physicochemical

## Cc1c(CO)c2ccccc2n1Cc1ccccc1C#N [Compound 1, 2-((3-(hydroxymethyl)-2-methyl-1H-indol-1-yl)methyl)benzonitrile]
[1]; NF54, heading bounds of Figure 8: not reconfirming / reconfirming / newly synthesized compounds, read-out: EC50 (bound in Figure 8)
  EC50: > 1 µM
[1]; P. falciparum NF54 strain, 3H-hypoxanthine incorporation, newly synthesized sample, read-out: EC50 (NF54)
  EC50: 4.7 µM
[1]; negative logarithm of the molar EC50, NF54, read-out: pEC50 (NF54) (converted)
  EC50: 5.01 µM
[1]; hit validation, NF54 confirmatory assay
  Comment (activity in words on retest): Weakly active/unstable
P. falciparum 3D7 strain; P. falciparum 3D7 strain, DAPI imaging, HTS screen, library sample, read-out: EC50 (3D7)
  EC50: 0.602 µM
P. falciparum 3D7 strain; negative logarithm of the molar EC50, 3D7, read-out: pEC50 (3D7) (converted)
  EC50: 0.631 µM
[2]
  Chemical stability: significantly degraded; also recorded: unstable
